Columns and labels:
plasma protein = settings: TKIs in clinical use; cited from earlier work
[1] = tested on: alpha 1-acid glycoprotein (AAG); settings: reported; cited from earlier work
[2] = Average plasma concentration of erlotinib co-administered with MM-121; type: in vivo, human; settings: for Erlotinib Avg Conc.: plasma
Excerpt: The ability of the anti-ErbB3 agent to alter the pharmacokinetics of a co-administered AAGB or TKI can be evaluated by measuring serum drug levels and calculating pharmacokinetic parameters. Pharmacokinetic parameters referred to herein (e.g., Example 1) describe the in vivo characteristics of a drug over time. These include plasma concentration (C), as well as Cmax, Tmax, and AUC. The term “Cmax” refers to the measured plasma concentration of the active agent at the point of maximum, or peak, concentration following an administration. The term “Tmax” refers to the time from drug administration until Cmax is reached. The term “AUC” refers to the area under the curve of a graph of the measured plasma concentration of an active agent vs. time, measured from one time point to another time point. For example AUC0-t is the area under the curve of plasma concentration versus time from time 0 to time t, where time 0 is the time of initial administration of the drug. Time t can be the last time point with measurable plasma concentration for an individual drug.
Patients also received one of two different doses of erlotinib (either 100 mg or 150 mg) administered daily orally. The antibody administration began on Day 1 and continued with weekly doses and the erlotinib administration began on Day 2 and continued with daily doses. Pharmacokinetic parameters were monitored for the duration of treatment, until the patient's cancer progressed or the patient came off the study.
For the erlotinib, the average plasma concentration was measured.

Row | SMILES | plasma protein binding (plasma protein) | binding to AAG that can alter bioavailability [1] | other results
1 | C#Cc1cccc(Nc2ncnc3cc(OCCOC)c(OCCOC)cc23)c1 [Erlotinib, erlotinib] | high | significant binding | higher average plasma concentration of erlotinib ([2]; Patient 5 (12 mg/kg MM-121) vs Patient 2 (6 mg/kg MM-121), each 150 mg erlotinib): approximately 2.19 fold; higher average plasma concentration of erlotinib ([2]; Patient 8 (12 mg/kg MM-121) vs Patient 1 (6 mg/kg MM-121), each 100 mg erlotinib): approximately 2.02 fold; Erlotinib Avg Conc. ([2]; Subject 1, erlotinib 100 mg daily oral + MM-121 6 mg/kg weekly i.v.): 384 ng/mL; Erlotinib Avg Conc. ([2]; Subject 2, erlotinib 150 mg daily oral + MM-121 6 mg/kg weekly i.v.): 624 ng/mL; Erlotinib Avg Conc. ([2]; Subject 3, erlotinib 150 mg daily oral + MM-121 6 mg/kg weekly i.v.): 569 ng/mL; Erlotinib Avg Conc. ([2]; Subject 4, erlotinib 150 mg daily oral + MM-121 6 mg/kg weekly i.v.): 656 ng/mL; Erlotinib Avg Conc. ([2]; Subject 5, erlotinib 150 mg daily oral + MM-121 12 mg/kg weekly i.v.): 1370 ng/mL; Erlotinib Avg Conc. ([2]; Subject 6, erlotinib 150 mg daily oral + MM-121 12 mg/kg weekly i.v.): 1165.3 ng/mL; Erlotinib Avg Conc. ([2]; Subject 7, erlotinib 100 mg daily oral + MM-121 12 mg/kg weekly i.v.): 2395.6 ng/mL; Erlotinib Avg Conc. ([2]; Subject 8, erlotinib 100 mg daily oral + MM-121 12 mg/kg weekly i.v.): 777.5894 ng/mL; higher average plasma concentration of erlotinib ([2]; patients treated with 12 mg/kg anti-ErbB3 antibody compared to patients treated with 6 mg/kg): 2-3 fold
2 | Cc1ccc(NC(=O)c2ccc(CN3CCN(C)CC3)cc2)cc1Nc1nccc(-c2cccnc2)n1 [imatinib] | – | significant binding | –
3 | CCN(CC)CCNC(=O)c1c(C)[nH]c(/C=C2\C(=O)Nc3ccc(F)cc32)c1C [sunitinib] | high | – | –
4 | Cc1cn(-c2cc(NC(=O)c3ccc(C)c(Nc4nccc(-c5cccnc5)n4)c3)cc(C(F)(F)F)c2)cn1 [nilotinib] | high | – | –
5 | CS(=O)(=O)CCNCc1ccc(-c2ccc3ncnc(Nc4ccc(OCc5cccc(F)c5)c(Cl)c4)c3c2)o1 [lapatinib] | high | significant binding | –
6 | Cc1nc(Nc2ncc(C(=O)Nc3c(C)cccc3Cl)s2)cc(N2CCN(CCO)CC2)n1 [dasatinib] | high | – | –
7 | Cc1ccc(Nc2nccc(N(C)c3ccc4c(C)n(C)nc4c3)n2)cc1S(N)(=O)=O [pazopinib] | high | – | –
8 | CNC(=O)c1cc(Oc2ccc(NC(=O)Nc3ccc(Cl)c(C(F)(F)F)c3)cc2)ccn1 [sorafenib] | high | – | –
9 | COc1cc2ncnc(Nc3ccc(F)c(Cl)c3)c2cc1OCCCN1CCOCC1 [gefitinib] | high | significant binding | –
10 | CN(C)C/C=C/C(=O)Nc1cc2c(Nc3ccc(F)c(Cl)c3)ncnc2cc1O[C@H]1CCOC1 [afatinib] | high | – | –

— patent US20140234317A1, “METHODS FOR PREVENTING TOXIC DRUG-DRUG INTERACTIONS IN COMBINATION THERAPIES COMPRISING ANTI-ERBB3 AGENTS” (Merrimack Pharmaceuticals, Inc., priority 2011, published 2014)
